Patent US20250034165A1, “COMPOUND CONTAINING CYCLOALKYL OR HALOALKYL” (CHIA TAI TIANQING PHARMACEUTICAL GROUP CO., LTD., priority 2021, published 2025)
Like-named read-outs stand apart in the source and are kept apart here. Each block holds one molecule with its values, some of them ahead of it.

Assays:
EGFR (L858R/T790M) = EGFR (L858R/T790M) (Homo sapiens (Human), UniProt P00533, L858R/T790M); experiment: Inhibitory activity for EGFR (L858R/T790M) kinase; format: biochemical; details: ATP 5 μM
Sequence of EGFR (L858R/T790M) (P00533 25-1210 T790M/L858R): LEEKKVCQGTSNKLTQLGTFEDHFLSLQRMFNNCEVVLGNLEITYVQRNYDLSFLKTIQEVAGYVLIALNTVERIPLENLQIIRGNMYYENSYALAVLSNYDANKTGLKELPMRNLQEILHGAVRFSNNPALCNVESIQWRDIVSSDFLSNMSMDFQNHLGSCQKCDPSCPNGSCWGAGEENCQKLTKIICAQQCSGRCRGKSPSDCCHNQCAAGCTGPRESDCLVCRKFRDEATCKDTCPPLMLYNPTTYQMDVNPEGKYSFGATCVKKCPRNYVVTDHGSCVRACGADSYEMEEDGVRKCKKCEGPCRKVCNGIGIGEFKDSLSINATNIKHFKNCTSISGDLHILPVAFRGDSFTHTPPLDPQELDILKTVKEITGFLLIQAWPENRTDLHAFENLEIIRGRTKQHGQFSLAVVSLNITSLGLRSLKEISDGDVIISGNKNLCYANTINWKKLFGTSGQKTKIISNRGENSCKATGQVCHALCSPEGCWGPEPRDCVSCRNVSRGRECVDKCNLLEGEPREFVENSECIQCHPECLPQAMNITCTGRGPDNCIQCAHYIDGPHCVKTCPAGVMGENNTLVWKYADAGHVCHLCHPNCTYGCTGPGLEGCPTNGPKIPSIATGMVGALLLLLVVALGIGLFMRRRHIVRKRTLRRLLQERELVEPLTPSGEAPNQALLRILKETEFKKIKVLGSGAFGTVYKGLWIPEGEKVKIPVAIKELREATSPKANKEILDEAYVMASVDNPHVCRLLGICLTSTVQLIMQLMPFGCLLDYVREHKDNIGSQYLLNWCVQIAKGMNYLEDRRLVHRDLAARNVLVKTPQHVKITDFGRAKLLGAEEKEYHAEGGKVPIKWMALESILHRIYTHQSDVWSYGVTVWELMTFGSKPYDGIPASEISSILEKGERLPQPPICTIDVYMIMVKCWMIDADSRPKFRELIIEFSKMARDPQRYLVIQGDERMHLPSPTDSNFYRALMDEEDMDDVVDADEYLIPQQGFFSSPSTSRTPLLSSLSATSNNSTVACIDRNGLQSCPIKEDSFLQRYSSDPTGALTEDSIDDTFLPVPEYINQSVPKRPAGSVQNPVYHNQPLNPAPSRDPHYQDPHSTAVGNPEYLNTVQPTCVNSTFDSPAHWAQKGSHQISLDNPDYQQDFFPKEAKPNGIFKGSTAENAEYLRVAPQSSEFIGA
Experimental: (§1) A 50 ng/μL EGFR (L858R/T790M, Carna) stock solution was diluted with a kinase buffer (50 mM HEPES, 10 mM MgCl2, 2 mM DTT, 1 mM EGTA, 0.01% Tween 20), and 6 μL of 1.67× working solution at 0.004175 ng/μL (final concentration: 0.0025 ng/μL) was added to each well. Different compounds dissolved in DMSO were added to wells using a nanoliter pipettor, resulting in the final concentrations of the compounds of 10 nM to 0.0024 nM (4-fold gradient, 7 concentrations in total), and blank control wells (without enzyme) and negative control wells (with enzyme, plus vehicle DMSO) were set, 2 replicate wells for each concentration. After enzyme was reacted with the compound or vehicle for 30 min, 5×ATP at 25 μM (final concentration: 5 μM, Sigma) prepared with a kinase buffer was mixed with 5× substrate at 0.5 μM (final concentration: 0.1 μM, ULight-poly GT, PerkinElmer) at a ratio of 1:1 (v:v), and the mixture was added to each well at 4 μL/well. After being sealed with a film, the plate was incubated at room temperature for 2 h, and then 5 μL of 4×EDTA at 40 mM (final concentration: 10 mM) was added to each well. After the plate was incubated for 5 min at room temperature, 5 μL of 4× detection reagent at 8 nM (final concentration: 2 nM, Eu-anti-phospho-tyrosine antibody, PerkinElmer) was added to each well. After being incubated at room temperature for 1 h, the plate was read using a PerkinElmer Envision multi-mode microplate reader (excitation: 320 nm, emission: 665 nm), and IC50 was calculated by four-parameter fitting.

EGFR (L858R/T790M/C797S) = EGFR (L858R/T790M/C797S) (Homo sapiens (Human), UniProt P00533, C797S/L858R/T790M); experiment: Inhibitory activity for EGFR (L858R/T790M/C797S) kinase; format: biochemical; details: ATP 5 μM
Sequence of EGFR (L858R/T790M/C797S) (P00533 25-1210 T790M/C797S/L858R): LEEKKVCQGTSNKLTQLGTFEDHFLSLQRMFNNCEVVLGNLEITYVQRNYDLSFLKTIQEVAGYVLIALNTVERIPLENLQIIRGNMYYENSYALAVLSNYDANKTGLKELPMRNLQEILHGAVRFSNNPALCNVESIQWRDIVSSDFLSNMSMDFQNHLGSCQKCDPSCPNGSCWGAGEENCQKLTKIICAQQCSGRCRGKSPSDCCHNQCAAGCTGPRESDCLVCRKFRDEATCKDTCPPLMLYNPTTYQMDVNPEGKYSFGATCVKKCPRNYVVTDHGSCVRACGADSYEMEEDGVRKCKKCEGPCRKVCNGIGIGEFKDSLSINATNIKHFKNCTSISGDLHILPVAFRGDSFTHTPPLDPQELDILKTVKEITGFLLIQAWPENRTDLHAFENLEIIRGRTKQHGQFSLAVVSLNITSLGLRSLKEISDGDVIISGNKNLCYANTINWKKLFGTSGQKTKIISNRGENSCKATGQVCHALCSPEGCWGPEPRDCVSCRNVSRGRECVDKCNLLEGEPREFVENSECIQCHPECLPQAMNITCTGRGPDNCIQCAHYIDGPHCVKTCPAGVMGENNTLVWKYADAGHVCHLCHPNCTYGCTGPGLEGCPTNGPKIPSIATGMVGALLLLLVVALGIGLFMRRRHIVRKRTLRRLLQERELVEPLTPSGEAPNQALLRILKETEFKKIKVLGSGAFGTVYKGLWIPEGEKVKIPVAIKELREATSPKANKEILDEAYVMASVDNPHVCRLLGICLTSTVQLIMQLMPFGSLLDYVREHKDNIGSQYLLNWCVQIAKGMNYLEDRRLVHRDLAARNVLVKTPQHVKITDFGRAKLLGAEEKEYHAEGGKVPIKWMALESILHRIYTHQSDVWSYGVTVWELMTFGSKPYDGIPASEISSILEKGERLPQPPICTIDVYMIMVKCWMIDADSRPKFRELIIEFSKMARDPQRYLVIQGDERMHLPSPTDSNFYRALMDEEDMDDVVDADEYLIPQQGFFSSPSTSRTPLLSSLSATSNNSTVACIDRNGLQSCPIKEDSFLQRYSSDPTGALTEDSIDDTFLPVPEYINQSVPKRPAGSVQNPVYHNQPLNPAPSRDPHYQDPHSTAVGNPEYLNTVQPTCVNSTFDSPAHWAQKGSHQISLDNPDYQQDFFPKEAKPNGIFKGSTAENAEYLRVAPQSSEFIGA
Experimental: as §1, with “(L858R/T790M/C797S, BPS)” for “(L858R/T790M, Carna)”, “0.00167” for “0.004175”, “0.001” for “0.0025”

[1] = In vivo pharmacokinetics in ICR mice; details: for MRT last: read-out: MRT(0-t); for half-life: read-out: T½ (converted); for bioavailability: 10 mg/kg
Summary of the method: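 ICR mice (18–20 g, 9 per group, fasted 12 h) received 10 mg/kg of compound intragastrically. Orbital blood was taken from 0 min to 24 h and EDTA-K2 plasma was prepared. Plasma was precipitated with acetonitrile containing diazepam as internal standard and analysed by LC/MS/MS.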

NCI-H1975(L858R T790M) = experiment: Nude mouse subcutaneous xenograft tumor model of NCI-H1975 cells; format: in vivo, nude mice; details: once a day; for Tumor growth inhibition % (tumor weight, d 18) / Tumor growth inhibition % (volume, d 15): 17 days
Source text: Evaluation on drug effect on nude mouse subcutaneous xenograft tumor model of NCI-H1975 cells: NCI-H1975 cells were inoculated subcutaneously in the right axilla of SPF-grade female nude mice (source: Jiangsu Huachuang Sino Pharmaceutical Technology Co., Ltd.) at 1×10^6 cells/mouse. When the mean tumor volume reached about 200 mm^3, the animals were grouped.
The day of grouping was defined as day 0, and intragastric administration was started on day 0 and performed once a day. The tumor volume was measured 2-3 times a week, meanwhile, the mice were weighed and the data were recorded; the general behavior of the mice was observed and recorded every day. After the experiment was completed, the tumors were removed, weighed, and photographed.
Tumor volume TV (mm^3)=½×(a×b^2),
Relative tumor volume RTV=TVt/TV0,
Relative tumor proliferation rate T/C (%)=(TRTV/CRTV)×100%,
Tumor growth inhibition rate TGI (%)=(1−TW/TW0)×100%;

[2] = mouse, plasma, 1 mg/kg, IV, read-out: AUC(0-t)
[3] = mouse, plasma, PO, 10 mg/kg intragastric
[4] = mouse, plasma, PO, 10 mg/kg intragastric, read-out: AUC(0-t)
[5] = mouse, plasma, PO, 10 mg/kg intragastric, read-out: Cmax
[6] = mouse, plasma, PO, 10 mg/kg intragastric, read-out: Tmax

Compound: Cc1cc2cc(n1)-c1cnn(C)c1OC[C@H](C1CC1)CCCn1c(nc3ccc(NC4COC4)cc31)NC2=O [Example 59]
IC50 (EGFR (L858R/T790M)): 0.081 nM
IC50 (EGFR (L858R/T790M/C797S)): 0.085 nM

Compound: Cc1cc2cc(n1)-c1cnn(C)c1OC[C@H](C1CC1)CCCn1c(nc3cc(NC4COC4)ccc31)NC2=O [Example 60]
IC50 (EGFR (L858R/T790M)): 0.09 nM
IC50 (EGFR (L858R/T790M/C797S)): 0.081 nM

Compound: Cc1cc2cc(n1)-c1cnn(C)c1OCCC[C@@H](C1CC1)CN1/C(=N/C2=O)Nc2cc(NC3(C)COC3)ccc21 [Example 29]
CLz ([1]; IV): 1.18 L/h/kg
AUC(0-inf) ([1]; mouse, plasma, 1 mg/kg, IV): 0.85 µg·h/mL
AUC(0-t) [1, 2]: 0.845 µg·h/mL
MRT last ([1]; mouse, plasma, 1 mg/kg, IV): 1.1 h
half-life ([1]; mouse, plasma, 1 mg/kg, IV): 1.65 h
bioavailability ([1]; mouse, plasma, PO vs IV): 42.9%
AUC(0-inf) [1, 3]: 3.64 µg·h/mL
AUC(0-t) [1, 4]: 3.62 µg·h/mL
Cmax [1, 5]: 0.553 µg/mL
MRT last [1, 3]: 5.99 h
Tmax [1, 6]: 0.5 h
half-life [1, 3]: 3.06 h
Tumor growth inhibition % (tumor weight, d 18) (NCI-H1975(L858R T790M); 5 mpk (i.g)): 41.7% (tumor weight,
Tumor growth inhibition % (volume, d 15) (NCI-H1975(L858R T790M); 5 mpk (i.g)): 40.0% (volume, d 15)
Tumor growth inhibition % (tumor weight, d 18) (NCI-H1975(L858R T790M); 10 mpk (i.g)): 83.9% (tumor
Tumor growth inhibition % (volume, d 15) (NCI-H1975(L858R T790M); 10 mpk (i.g)): 75.0% (volume,

Compound: C[C@H](Nc1ccc2c(c1)N/C1=N\C(=O)c3cc(F)nc(c3)-c3cnn(C)c3OCCC[C@@H](C3CC3)CN12)C(F)(F)F [Example 9]
IC50 (EGFR (L858R/T790M)): 0.45 nM
IC50 (EGFR (L858R/T790M/C797S)): 0.5 nM

Compound: Cc1cc2cc(n1)-c1cnn(C)c1OCCC[C@@H](C1CC1)CN1/C(=N/C2=O)Nc2ccc(NCCN(C)C)cc21 [Example 28]
CLz ([1]; IV): 2.93 L/h/kg
AUC(0-inf) ([1]; mouse, plasma, 1 mg/kg, IV): 0.341 µg·h/mL
AUC(0-t) [1, 2]: 0.336 µg·h/mL
MRT last ([1]; mouse, plasma, 1 mg/kg, IV): 3.96 h
half-life ([1]; mouse, plasma, 1 mg/kg, IV): 4.64 h
bioavailability ([1]; mouse, plasma, PO vs IV): 27.9%
AUC(0-inf) [1, 3]: 0.965 µg·h/mL
AUC(0-t) [1, 4]: 0.938 µg·h/mL
Cmax [1, 5]: 0.0745 µg/mL
MRT last [1, 3]: 7.72 h
Tmax [1, 6]: 6 h
half-life [1, 3]: 4.29 h

Now from value to molecule, other results behind:

IC50 (EGFR (L858R/T790M)): 0.04 nM
IC50 (EGFR (L858R/T790M/C797S)): 0.027 nM
AUC(0-t) ([1]; IV): 0.261 µg·h/mL
AUC(0-∞) ([1]; IV): 0.262 µg·h/mL
CLz ([1]; IV): 3.81 L/h/kg
MRT(0-t) ([1]; IV): 0.61 h
T½ ([1]; IV): 1.74 h
F (%) ([1]; PO vs IV): 118.35%
AUC(0-t) ([1]; PO, 10 mg/kg intragastric): 3.093 µg·h/mL
AUC(0-∞) ([1]; PO, 10 mg/kg intragastric): 3.096 µg·h/mL
Cmax ([1]; PO, 10 mg/kg intragastric): 0.488 µg/mL
MRT(0-t) ([1]; PO, 10 mg/kg intragastric): 3.84 h
Tmax ([1]; PO, 10 mg/kg intragastric): 0.50 h
T½ ([1]; PO, 10 mg/kg intragastric): 2.33 h
Compound: Cc1cc2cc(n1)-c1cnn(C)c1OCCC[C@@H](C1CC1)CN1/C(=N/C2=O)Nc2cc(N[C@H](C)C3COC3)ccc21 [Example 39]
Tumor growth inhibition % (tumor weight, d 14) (NCI-H1975(L858R T790M); 10 mpk (i.g), 14 days): 65.1% (tumor
Tumor growth inhibition % (volume, d 12) (NCI-H1975(L858R T790M); 10 mpk (i.g), 14 days): 70.2%

IC50 (EGFR (L858R/T790M)): 0.01 nM
IC50 (EGFR (L858R/T790M/C797S)): 0.177 nM
Compound: Cc1cc2cc(n1)-c1cnn(C)c1OCCC[C@@H](C1CC1)CN1/C(=N/C2=O)Nc2cc(NC3(C(F)(F)F)COC3)ccc21 [Example 88]

IC50 (EGFR (L858R/T790M)): 0.031 nM
IC50 (EGFR (L858R/T790M/C797S)): 0.02 nM
Compound: Cc1cc2cc(n1)-c1cnn(C)c1OCCC[C@@H](C1CC1)CN1/C(=N/C2=O)Nc2ccc(C=CCCN(C)C)cc21 [Example 24]

IC50 (EGFR (L858R/T790M)): 0.025 nM
IC50 (EGFR (L858R/T790M/C797S)): 0.017 nM
Compound: Cc1cc2cc(n1)-c1cnn(C)c1OCCC[C@@H](C1CC1)CN1/C(=N/C2=O)Nc2cc(N[C@H]3CC[C@@H](N(C)C)CC3)ccc21 [Example 26]

IC50 (EGFR (L858R/T790M)): 0.021 nM
IC50 (EGFR (L858R/T790M/C797S)): 0.014 nM
Compound: Cc1cc2cc(n1)-c1cnn(C)c1OCCC[C@@H](C1CC1)CN1/C(=N/C2=O)Nc2cc(N[C@H]3CC[C@H](N(C)C)CC3)ccc21 [Example 25]
Tumor growth inhibition % (tumor weight, d 18) (NCI-H1975(L858R T790M); 5 mpk (i.g)): 31.4% (tumor
Tumor growth inhibition % (volume, d 15) (NCI-H1975(L858R T790M); 5 mpk (i.g)): 22.5% (volume,
Tumor growth inhibition % (tumor weight, d 18) (NCI-H1975(L858R T790M); 10 mpk (i.g)): 75.8% (tumor
Tumor growth inhibition % (volume, d 15) (NCI-H1975(L858R T790M); 10 mpk (i.g)): 72.5% (volume,
